Measurements published in patent US20240166626A1, “Compounds and Methods for Preventing, Treating, or Ameliorating Airway Disease” (THOMAS JEFFERSON UNIVERSITY, priority 2021, published 2024).

Key:
Type in all cases: cell-based
HASM cells = assay: Human airway smooth muscle cell scratch (migration) assay; conditions: 24 hours post scratch, 20 ng/mL PDGF, relative to PDGF alone
Procedure: FIGS. 4A-4F: DFPQ inhibits internalization of the β2AR and protects from agonist induced desensitization in cell and tissue models. FIG. 4A: Effect of DFPQ on agonist-promoted internalization of the β2AR. HEK 293 cells stably expressing FLAG-β2AR were pre-incubated with 0.1% DMSO or 10 μM DFPQ for 30 min and then stimulated with the indicated concentrations of ISO for up to 60 min. Cells were fixed and receptor surface expression was measured by ELISA. […] Cells were lysed and cAMP production was measured by ELISA. […] FIG. 4C: Mouse airway tissue were contracted with 1 μM methacholine for 5 min and then incubated overnight with 1 μM ISO±1 μM DFPQ. Airway slices were washed, re-contracted with methacholine, and incubated with ISO for 1 hour (n=4 bronchioles). Airway contractility was measured by luminal area of bronchioles by microscopy at various times. FIG. 4D: Bar graphs represent normalized ISO-promoted relaxation from methacholine contraction on day 2 of treatment at the 25 min timepoint from 4 tracheal rings. *, p<0.05 FIG. 4E: HASM cells were scratched and incubated overnight in PDGF containing serum free media. Cells were imaged to evaluate migration into the scratched area. FIG. 4F: Densitometric analysis of migration into scratched area (n=3 experiments). ***, p<0.001; **, p<0.01
Cell culture GLOSENSOR™ cells (Promega) were maintained in Dulbecco's modified Eagle's medium (DMEM) containing 10% fetal bovine serum (FBS) and 200 μg/ml Hygromycin B. […]® ADRB2 cells (DiscoveRx) were maintained with the AssayComplete™ Cell Culture kit (DiscoveRx catalog #92-3107G). […] Cells were read every three minutes for 18 minutes on a PolarStar Optima plate reader (BMG) to establish peak signal. ISO was added to each well to a final concentration of 1 μM, and luminescence was determined in kinetic mode at room temperature (23-25° C.). Response was analyzed relative to forskolin (7 μM) and alprenolol (1 μM) as positive and negative controls, respectively. […] Luminescence was determined at room temperature (23-25° C.) on a PolarStar Optima plate reader (BMG). […]

β2AR [1] = target: T1, β2AR (Homo sapiens, UniProt P07550); assay: […] high throughput assay for β-arrestin recruitment to β2AR; conditions: PathHunter, ISO-promoted β-arrestin2 recruitment
β2AR [2] = target: T1, β2AR; assay: GLOSENSOR cAMP production assay (bias = GloSensor IC50:PathHunter IC50); conditions: GloSensor IC50:PathHunter IC50 ratio
[3] = Table 2, scaffold drawing 253, R1/R2 substituents
[4] = Table 3, scaffold drawing 254, R1/R3 substituents

T1 sequence (P07550 whole entry): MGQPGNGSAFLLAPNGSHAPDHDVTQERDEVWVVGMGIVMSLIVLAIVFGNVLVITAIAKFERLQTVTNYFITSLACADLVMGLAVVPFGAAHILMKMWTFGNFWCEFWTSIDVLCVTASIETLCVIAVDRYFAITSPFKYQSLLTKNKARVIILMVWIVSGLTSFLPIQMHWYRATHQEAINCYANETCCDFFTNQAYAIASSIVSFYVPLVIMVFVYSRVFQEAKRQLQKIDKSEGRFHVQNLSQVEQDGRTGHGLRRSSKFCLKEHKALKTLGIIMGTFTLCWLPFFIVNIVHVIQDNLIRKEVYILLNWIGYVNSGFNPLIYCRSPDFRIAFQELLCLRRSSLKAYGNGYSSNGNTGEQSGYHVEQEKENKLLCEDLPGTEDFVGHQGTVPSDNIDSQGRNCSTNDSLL

Row | SMILES | IC50 (β2AR [1]; [3]) | Arrestin fold bias (β2AR [2]; Table 2) | IC50 (β2AR [1]; [4]) | Arrestin fold bias (β2AR [2]; Table 3) | HASM cell migration into scratched area (HASM cells)
1 | CC(C)NCC(O)c1ccc(O)c(O)c1 (stereo not shown) [ISO, isoproterenol] |  |  |  |  | reduced migration
2 | Fc1ccc(Nc2nc(NC3CCCCC3)c3cc(C(F)(F)F)ccc3n2)cc1F [m,p-difluorophenyl / 6-trifluoromethyl] |  | >1000 |  |  | 
3 | COc1ccc(Nc2nc(NC3CCCCC3)c3ccccc3n2)cc1OC [m,p-dimethoxyphenyl / N/A] | 14 ± 3 µM | >7 |  |  | 
4 | Clc1cccc(CNc2nc(NC3CCCCC3)c3ccccc3n2)c1 [m-chlorobenzyl / N/A] | 21 ± 2 µM | No |  |  | 
5 | Clc1cccc(Nc2nc(NC3CCCCC3)c3ccccc3n2)c1 [m-chlorophenyl / N/A] | 6 ± 0.8 µM | >10 |  |  | 
6 | CC1CCCC(Nc2nc(Nc3cc(Cl)cc(Cl)c3)nc3ccccc23)C1 (stereo not shown) [m-dichlorophenyl / 3-methylcyclohexyl] |  |  | 8 ± 5 µM | >10 | 
7 | Clc1cc(Cl)cc(Nc2nc(NCc3ccccc3)c3ccccc3n2)c1 [m-dichlorophenyl / benzyl] |  |  | 30 ± 4 µM | No | 
8 | Clc1cc(Cl)cc(Nc2nc(NC3CCCC3)c3ccccc3n2)c1 [m-dichlorophenyl / cyclopentyl] |  |  | 9 ± 3 µM | ~2 | 
9 | Cc1ccc(CNc2nc(NC3CCCCC3)c3ccccc3n2)cc1 [p-methylbenzyl / N/A] | 8 ± 2 µM | ~4 |  |  | 
10 | OCc1cc(C(O)CNCCCCCCOCCCCc2ccccc2)ccc1O (stereo not shown) [salmeterol] |  |  |  |  | reduced migration

Continued by falling IC50 (β2AR [1]; [3]), values first:

Row | IC50 (β2AR [1]; [3]) | Arrestin fold bias (β2AR [2]; Table 2) | IC50 (β2AR [1]; [4]) | Arrestin fold bias (β2AR [2]; Table 3) | SMILES | HASM cell migration into scratched area (HASM cells)
11 | 4 ± 1 µM | >10 |  |  | c1ccc2c(NC3CCCCC3)nc(NC3CCCCC3)nc2c1 [cyclohexyl / N/A] | 
12 | 3 ± 0.7 µM | >100 |  |  | Clc1ccc(Nc2nc(NC3CCCCC3)c3ccccc3n2)cc1Cl [m,p-dichlorophenyl / N/A] | 
13 | 3 ± 1 µM | ~3 |  |  | FC(F)(F)c1cccc(Nc2nc(NC3CCCCC3)c3ccccc3n2)c1 [m-trifluoromethylphenyl / N/A] | 
14 | 3 ± 0.7 µM | >100 |  |  | c1ccc(Nc2nc(NC3CCCCC3)c3ccccc3n2)cc1 [phenyl / N/A] | 
15 | 0.8 ± 0.2 µM | >100 |  |  | Clc1ccc(Nc2nc(NC3CCCCC3)c3ccccc3n2)cc1 [p-chlorophenyl / N/A] | 
16 | 0.36 ± 0.18 µM | >45 |  |  | Cc1ccc2nc(Nc3ccc(F)c(F)c3)nc(NC3CCCCC3)c2c1 [m,p-difluorophenyl / 6-methyl] | 
17 | 0.23 ± 0.07 µM | >200 |  |  | Fc1ccc(Nc2nc(NC3CCCCC3)c3ccccc3n2)cc1 [p-fluorophenyl / N/A] | 
18 | 0.2 ± 0.05 µM | >200 |  |  | Fc1cc(F)cc(Nc2nc(NC3CCCCC3)c3ccccc3n2)c1 [m-difluorophenyl / N/A] | 
19 | 0.12 ± 0.05 µM | >400 |  |  | Fc1ccc(Nc2nc(NC3CCCCC3)c3cc(Cl)ccc3n2)cc1F [m,p-difluorophenyl / 6-chloro] | 
20 | 0.03 ± 0.02 µM | >900 |  |  | Fc1ccc(Nc2nc(NC3CCCCC3)c3cc(Br)ccc3n2)cc1F [m,p-difluorophenyl / 6-bromo] | 
